Experimental data: patent US20250026778A1 (TIUMBIO CO., LTD., priority 2021, published 2025)

Each compound was assayed against T1, his-galectin-3 (Homo sapiens, UniProt P17931) (assay: TR-FRET assay (in vitro galectin-3 binding inhibitory activity test)). Details: Table 1; compound at 20 μM; 60 nM his-galectin-3, 15 nM biotin-ASF; read-out: % Inhibitory activity (at 20 μM).
T1 construct: purchased Abcam
Method in brief: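 Compound is premixed with his-galectin-3 (60 nM final), then biotin-ASF (15 nM), Tb anti-His antibody (2 nM) and streptavidin-d2 (20 nM) are added. After at least 3.5 hours at RT in HEPES/NaCl buffer with Tween 20 and BSA, TR-FRET is read at 615/665 nm. DMSO serves as the uninhibited control, ASF omission as background.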

T1 sequence (P17931 whole entry): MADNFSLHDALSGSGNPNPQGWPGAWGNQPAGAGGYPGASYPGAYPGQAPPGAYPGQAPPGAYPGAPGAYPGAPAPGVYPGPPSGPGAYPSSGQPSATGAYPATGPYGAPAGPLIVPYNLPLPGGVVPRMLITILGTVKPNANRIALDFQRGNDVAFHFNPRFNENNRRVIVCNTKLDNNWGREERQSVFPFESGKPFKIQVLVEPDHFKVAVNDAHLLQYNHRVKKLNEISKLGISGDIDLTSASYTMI

SMILES	inhibition at 20 µM [%]
OC[C@H]1O[C@@]2(CCCN(Cc3cccc(Cl)c3)C2)[C@H](O)[C@@H](n2cc(-c3cc(F)c(F)c(F)c3)nn2)[C@H]1O [Compound A143, (2R,3R,4S,5R,6R)-8-(3-chlorobenzyl)-2-(hydroxymethyl)-4-(4-(3,4,5-trifluorophenyl)-1H-1,2,3-triazol-1-yl)-1-oxa-8-azaspiro[5.5]undecane-3,5-diol]	< 25
O=C(c1cccnc1)N1CCC[C@]2(C1)O[C@H](CO)[C@H](O)[C@H](n1cc(-c3cc(F)c(F)c(F)c3)nn1)[C@H]2O [Compound A144, ((2R,3R,4S,5R,6R)-3,5-dihydroxy-2-(hydroxymethyl)-4-(4-(3,4,5-trifluorophenyl)-1H-1,2,3-triazol-1-yl)-1-oxa-8-azaspiro[5.5]undecan-8-yl)(pyridin-3-yl)methanone]	< 25
O=C(Cc1ccc(Oc2ccccc2)cc1)N[C@@H]1CCO[C@]12O[C@H](CO)[C@H](O)[C@H](n1cc(-c3cc(F)c(F)c(F)c3)nn1)[C@H]2O [Compound A148, N-((4R,5S,7R,8R,9S,10R)-8,10-dihydroxy-7-(hydroxymethyl)-9-(4-(3,4,5-trifluorophenyl)-1H-1,2,3-triazol-1-yl)-1,6-dioxaspiro[4.5]decan-4-yl)-2-(4-phenoxyphenyl)acetamide]	25 to 50
O=C(N[C@@H]1CCO[C@]12O[C@H](CO)[C@H](O)[C@H](n1cc(-c3cc(F)c(F)c(F)c3)nn1)[C@H]2O)c1ccc2cc(Cl)ccc2c1 [Compound A149, 6-chloro-N-((4R,5S,7R,8R,9S,10R)-8,10-dihydroxy-7-(hydroxymethyl)-9-(4-(3,4,5-trifluorophenyl)-1H-1,2,3-triazol-1-yl)-1,6-dioxaspiro[4.5]decan-4-yl)-2-naphthamide]	50 to 75
O=C(N[C@@H]1CCO[C@]12O[C@H](CO)[C@H](O)[C@H](n1cc(-c3cc(F)c(F)c(F)c3)nn1)[C@H]2O)c1cccc(C(F)(F)F)c1 [Compound A152]	50 to 75

The remaining lines, values ahead:

inhibition at 20 µM [%]	SMILES
< 25	O=C(N[C@@H]1CCO[C@]12O[C@H](CO)[C@H](O)[C@H](n1cc(-c3cc(F)c(F)c(F)c3)nn1)[C@H]2O)C(F)(F)c1ccccc1 [Compound A147, N-((4R,5S,7R,8R,9S,10R)-8,10-dihydroxy-7-(hydroxymethyl)-9-(4-(3,4,5-trifluorophenyl)-1H-1,2,3-triazol-1-yl)-1,6-dioxaspiro[4.5]decan-4-yl)-2,2-difluoro-2-phenylacetamide]
> 75	O=C(N[C@@H]1CCO[C@]12O[C@H](CO)[C@H](O)[C@H](n1cc(-c3cc(F)c(F)c(F)c3)nn1)[C@H]2O)c1cccc(Br)c1 [Compound A150, 3-bromo-N-((4R,5S,7R,8R,9S,10R)-8,10-dihydroxy-7-(hydroxymethyl)-9-(4-(3,4,5-trifluorophenyl)-1H-1,2,3-triazol-1-yl)-1,6-dioxaspiro[4.5]decan-4-yl)benzamide]
> 75	O=C(Cc1cccc(Br)c1)N[C@@H]1CCO[C@]12O[C@H](CO)[C@H](O)[C@H](n1cc(-c3cc(F)c(F)c(F)c3)nn1)[C@H]2O [Compound A151, 2-(3-bromophenyl)-N-((4R,5S,7R,8R,9S,10R)-8,10-dihydroxy-7-(hydroxymethyl)-9-(4-(3,4,5-trifluorophenyl)-1H-1,2,3-triazol-1-yl)-1,6-dioxaspiro[4.5]decan-4-yl)acetamide]

Same assay, conditions: Table 2; compound at 20 μM; 60 nM his-galectin-3, 15 nM biotin-ASF; read-out: % Inhibitory activity (at 20 μM)

SMILES	inhibition at 20 µM [%]
O=C(N[C@@H]1CCO[C@]12O[C@H](CO)[C@H](O)[C@H](n1cc(-c3cc(F)c(F)c(F)c3)nn1)[C@H]2O)c1sc2ccccc2c1Cl [Compound A156, 3-chloro-N-((4R,5S,7R,8R,9S,10R)-8,10-dihydroxy-7-(hydroxymethyl)-9-(4-(3,4,5-trifluorophenyl)-1H-1,2,3-triazol-1-yl)-1,6-dioxaspiro[4.5]decan-4-yl)benzo[b]thiophene-2-carboxamide]	50 to 75
O=C(N[C@@H]1CCO[C@]12O[C@H](CO)[C@H](O)[C@H](n1cc(-c3cc(F)c(F)c(F)c3)nn1)[C@H]2O)c1cccc2c1CCCC2 [Compound A158, N-((4R,5S,7R,8R,9S,10R)-8,10-dihydroxy-7-(hydroxymethyl)-9-(4-(3,4,5-trifluorophenyl)-1H-1,2,3-triazol-1-yl)-1,6-dioxaspiro[4.5]decan-4-yl)-5,6,7,8-tetrahydronaphthalene-1-carboxamide]	50 to 75
O=C(N[C@@H]1CCO[C@]12O[C@H](CO)[C@H](O)[C@H](n1cc(-c3cc(F)c(F)c(F)c3)nn1)[C@H]2O)c1cc2cccc(Cl)c2s1 [Compound A159, 7-chloro-N-((4R,5S,7R,8R,9S,10R)-8,10-dihydroxy-7-(hydroxymethyl)-9-(4-(3,4,5-trifluorophenyl)-1H-1,2,3-triazol-1-yl)-1,6-dioxaspiro[4.5]decan-4-yl)benzo[b]thiophene-2-carboxamide]	50 to 75

Results, then the compound that gave them:

inhibition at 20 µM [%]	SMILES
< 25	OC[C@H]1O[C@]2(OCC[C@H]2n2ccnn2)[C@H](O)[C@@H](n2cc(-c3cc(F)c(F)c(F)c3)nn2)[C@H]1O [Compound A153, (4R,5S,7R,8R,9S,10R)-7-(hydroxymethyl)-4-(1H-1,2,3-triazol-1-yl)-9-(4-(3,4,5-trifluorophenyl)-1H-1,2,3-triazol-1-yl)-1,6-dioxaspiro[4.5]decane-8,10-diol]
> 75	O=C(N[C@@H]1CCO[C@]12O[C@H](CO)[C@H](O)[C@H](n1cc(-c3cc(F)c(F)c(F)c3)nn1)[C@H]2O)c1csc2ccccc12 [Compound A157, N-((4R,5S,7R,8R,9S,10R)-8,10-dihydroxy-7-(hydroxymethyl)-9-(4-(3,4,5-trifluorophenyl)-1H-1,2,3-triazol-1-yl)-1,6-dioxaspiro[4.5]decan-4-yl)benzo[b]thiophene-3-carboxamide]

Same assay, conditions: read-out: % Inhibitory activity (at 20 μM), Table 1; compound at 20 μM; 60 nM his-galectin-3, 15 nM biotin-ASF

SMILES	inhibition at 20 µM [%]
O=C(c1cccc(Cl)c1)N1CCC[C@]2(C1)O[C@H](CO)[C@H](O)[C@H](n1cc(-c3cc(F)c(F)c(F)c3)nn1)[C@H]2O [Compound A145, (3-chlorophenyl)((2R,3R,4S,5R,6R)-3,5-dihydroxy-2-(hydroxymethyl)-4-(4-(3,4,5-trifluorophenyl)-1H-1,2,3-triazol-1-yl)-1-oxa-8-azaspiro[5.5]undecan-8-yl)methanone]	< 25
O=C(Cc1ccccc1)N[C@@H]1CCO[C@]12O[C@H](CO)[C@H](O)[C@H](n1cc(-c3cc(F)c(F)c(F)c3)nn1)[C@H]2O [Compound A146, N-((4R,5S,7R,8R,9S,10R)-8,10-dihydroxy-7-(hydroxymethyl)-9-(4-(3,4,5-trifluorophenyl)-1H-1,2,3-triazol-1-yl)-1,6-dioxaspiro[4.5]decan-4-yl)-2-phenylacetamide]	25 to 50

Same assay, conditions: read-out: % Inhibitory activity (at 20 μM), Table 2; compound at 20 μM; 60 nM his-galectin-3, 15 nM biotin-ASF

SMILES	inhibition at 20 µM [%]
OC[C@H]1O[C@]2(OCC[C@H]2n2cc(-c3ccccc3)nn2)[C@H](O)[C@@H](n2cc(-c3cc(F)c(F)c(F)c3)nn2)[C@H]1O [Compound A154, (4R,5S,7R,8R,9S,10R)-7-(hydroxymethyl)-4-(4-phenyl-1H-1,2,3-triazol-1-yl)-9-(4-(3,4,5-trifluorophenyl)-1H-1,2,3-triazol-1-yl)-1,6-dioxaspiro[4.5]decane-8,10-diol]	25 to 50
COc1cccc(CN[C@@H]2CCO[C@]23O[C@H](CO)[C@H](O)[C@H](n2cc(-c4cc(F)c(F)c(F)c4)nn2)[C@H]3O)c1 [Compound A155, (4R,5S,7R,8R,9S,10R)-7-(hydroxymethyl)-4-((3-methoxylbenzyl)amino)-9-(4-(3,4,5-trifluorophenyl)-1H-1,2,3-triazol-1-yl)-1,6-dioxaspiro[4.5]decane-8,10-diol]	< 25

Same assay, conditions: read-out: % Inhibitory activity (at 20 μM), Table 3, found values; compound at 20 μM; 60 nM his-galectin-3, 15 nM biotin-ASF

SMILES	inhibition at 20 µM [%]
O=C(Cc1ccccc1)N[C@@H]1CCO[C@]12O[C@H](CO)[C@H](O)[C@H](n1cc(-c3cc(F)c(F)c(F)c3)nn1)[C@H]2O [Compound A146, N-((4R,5S,7R,8R,9S,10R)-8,10-dihydroxy-7-(hydroxymethyl)-9-(4-(3,4,5-trifluorophenyl)-1H-1,2,3-triazol-1-yl)-1,6-dioxaspiro[4.5]decan-4-yl)-2-phenylacetamide]	40.7
